Source: US4910225A, “Locally administrable therapeutic composition for inflammatory disease” (Senju Pharmaceutical Co., Ltd., priority 1988, dated 1990)

Key:
[1] = test system: experimental ophthalmitis induced by bovine serum albumin in white rabbits (ophthalmitis I); assay: Anti-inflammatory effect in ophthalmitis I (bovine serum albumin injected into the vitreous), gross severity scores; format: in vivo; conditions: for Anterior chamber opacity, degree of inhibition relative to physiological saline group / Balbar conjunctival injection, degree of inhibition relative to physiological saline group / Corneal opacity, degree of inhibition relative to physiological saline group / Discharge, degree of inhibition relative to physiological saline group / External + Internal Grand Total Score, degree of inhibition relative to physiological saline group / External Segment Total Score, degree of inhibition relative to physiological saline group / Internal Segment Total Score, degree of inhibition relative to physiological saline group / Iridic injection, degree of inhibition relative to physiological saline group / Morphological change of iris, degree of inhibition relative to physiological saline group / Palpebral conjunctival edema, degree of inhibition relative to physiological saline group / Palpebral conjunctival injection, degree of inhibition relative to physiological saline group / Anterior chamber opacity score (Internal Segment) / Balbar conjunctival injection score (External Segment) / Corneal opacity score (External Segment) / Discharge score (External Segment) / External + Internal Grand Total Score / External Segment Total Score / Internal Segment Total Score / Iridic injection score (Internal Segment) / Morphological change of iris score (Internal Segment) / Palpebral conjunctival edema score (External Segment) / Palpebral conjunctival injection score (External Segment): ophthalmitis I; for Anterior chamber opacity score (Internal Segment) / Balbar conjunctival injection score (External Segment) / Corneal opacity score (External Segment) / Discharge score (External Segment) / External + Internal Grand Total Score / External Segment Total Score / Internal Segment Total Score / Iridic injection score (Internal Segment) / Morphological change of iris score (Internal Segment) / Palpebral conjunctival edema score (External Segment) / Palpebral conjunctival injection score (External Segment): peak inflammatory period of 3 days, mean ± SE
Procedure: Seventeen male white rabbits weighing about 2 kg were used. They were fed with 80 g of Labo RG-RO (Nippon Agricultural Co., Ltd.) daily and had free access to tap water.
After 28 days when ophthalmitis I had nearly recovered, 2.5% BSA solution was administered in a dose of 25 mg/ml/kg into the auricular vein to cause ophthalmitis (ophthalmitis II). The severity of ophthalmitis was rated according to the rating scale^(1) of Yamauchi et al., based on the Draize method in which an increased weight given to the internal segment of the eye. Observation was made with a frequency of once in one or two days during the peak period of inflammation and once in three or four days before and after the peak period for ophthalmitis I and 3, 6, 12 and 24 hours after intravenous injection of BSA for ophthalmitis II.
^(1) Hideyasu Yamauchi, Makoto Ingu, Tadashi Iso and Kozo Uda: Anti-inflammatory effect of fluorometholone ophthalmic solution in experimental uveitis in rabbits, Folia Ophthalmologica Japonica, 24: 969-79 (1973).
Gross observation was made on the day after injection of BSA into the vitreous body and with the animals arranged in the decreasing order of severity of ocular inflammation, grouping was carried out in such a manner that the intensity distribution would be uniform over the groups. Thus, a physiological saline group of 7 animals, a 0.1% Compound [I] instillation group of 4 animals and a 0.5% Compound [I] instillation group of 5 animals were provided. After this grouping procedure, the test drugs and saline were respectively instilled into both eyes of the rabbits, 50 μl per dose, 4 times a day. For induction of ophthalmitis II, each drug was instilled into both eyes, 50 μl per dose, immediately after injection of BSA into the auricular vein and at 1-hour intervals thereafter, for a total of 14 times.

[2] = test system: protein increase after paracentesis; assay: Protein increase in aqueous humor after paracentesis; format: in vivo, albino rabbits
Procedure: The solutions of the following formulas were used.
Totally 28 male albino rabbits (4 rabbits×7 groups) with a body weight of about 2 kg werr used. They had been confirmed, before the experiment, to have mydriatic response to 1% atropine for at least 4 hours.
50 μl each of 1% atropine solution was instilled into both eyes of the animals one hour before the 1st paracenthesis, in which approx. 0.2 ml/eye of aqueous humor (primary aqueous humor) was collected. Topical application of 50 μl each of the test drug solutions was conducted 30 min before the paracenthesis. Pupil diameter of each eye was measured with a slide caliper immediately before and 10 min after the paracenthesis. The 2nd paracenthesis was conducted 90 min after the 1st one, in which approx. 0.2 ml/eye of aqueous humor (secondary aqueous humor) was collected.

Question: Which results are given for `Nc1c(CC(=O)[O-])cccc1C(=O)c1ccc(Br)cc1.O.[Na+]` [Compound [I], Sodium 3-(4-bromobenzoyl)-2-aminophenylacetate monohydrate]?
Answer: Inhibition of ophthalmitis I for the external and the internal segment of the eye ([1]; 0.1% and 0.5%): potent and dose-dependent inhibition for both the external and the internal segment of the eye; Anterior chamber opacity, degree of inhibition relative to physiological saline group ([1]; 0.1%): -20.0%; Balbar conjunctival injection, degree of inhibition relative to physiological saline group ([1]; 0.1%): 30.8%; Corneal opacity, degree of inhibition relative to physiological saline group ([1]; 0.1%): 60.0%; Discharge, degree of inhibition relative to physiological saline group ([1]; 0.1%): 100%; External + Internal Grand Total Score, degree of inhibition relative to physiological saline group ([1]; 0.1%): 41.8%; External Segment Total Score, degree of inhibition relative to physiological saline group ([1]; 0.1%): 50.4%; Internal Segment Total Score, degree of inhibition relative to physiological saline group ([1]; 0.1%): 32.6%; Iridic injection, degree of inhibition relative to physiological saline group ([1]; 0.1%): 57.4%; Morphological change of iris, degree of inhibition relative to physiological saline group ([1]; 0.1%): 34.1%; Palpebral conjunctival edema, degree of inhibition relative to physiological saline group ([1]; 0.1%): 85.7%; Palpebral conjunctival injection, degree of inhibition relative to physiological saline group ([1]; 0.1%): 65.8%; Anterior chamber opacity score (Internal Segment) ([1]; 0.1%): 3.6 ± 0.8; Balbar conjunctival injection score (External Segment) ([1]; 0.1%): 4.5 ± 0.6; Corneal opacity score (External Segment) ([1]; 0.1%): 1.0 ± 0.4; Discharge score (External Segment) ([1]; 0.1%): 0; External + Internal Grand Total Score ([1]; 0.1%): 15.9 ± 1.8; External Segment Total Score ([1]; 0.1%): 6.8 ± 1.0; Internal Segment Total Score ([1]; 0.1%): 9.1 ± 1.0; Iridic injection score (Internal Segment) ([1]; 0.1%): 2.6 ± 0.2; Morphological change of iris score (Internal Segment) ([1]; 0.1%): 2.9 ± 0.4; Palpebral conjunctival edema score (External Segment) ([1]; 0.1%): 0.1 ± 0.1; Palpebral conjunctival injection score (External Segment) ([1]; 0.1%): 1.3 ± 0.2; Anterior chamber opacity, degree of inhibition relative to physiological saline group ([1]; 0.5%): 33.3%; Balbar conjunctival injection, degree of inhibition relative to physiological saline group ([1]; 0.5%): 74.5%; Corneal opacity, degree of inhibition relative to physiological saline group ([1]; 0.5%): 48.0%; Discharge, degree of inhibition relative to physiological saline group ([1]; 0.5%): 100%; External + Internal Grand Total Score, degree of inhibition relative to physiological saline group ([1]; 0.5%): 63.0%; External Segment Total Score, degree of inhibition relative to physiological saline group ([1]; 0.5%): 74.5%; Internal Segment Total Score, degree of inhibition relative to physiological saline group ([1]; 0.5%): 51.1%; Iridic injection, degree of inhibition relative to physiological saline group ([1]; 0.5%): 70.5%; Morphological change of iris, degree of inhibition relative to physiological saline group ([1]; 0.5%): 34.1%; Palpebral conjunctival edema, degree of inhibition relative to physiological saline group ([1]; 0.5%): 100%; Palpebral conjunctival injection, degree of inhibition relative to physiological saline group ([1]; 0.5%): 36.8%; Anterior chamber opacity score (Internal Segment) ([1]; 0.5%): 2.0 ± 0.4; Balbar conjunctival injection score (External Segment) ([1]; 0.5%): 1.6 ± 0.2; Corneal opacity score (External Segment) ([1]; 0.5%): 0.4 ± 0.2; Discharge score (External Segment) ([1]; 0.5%): 0; External + Internal Grand Total Score ([1]; 0.5%): 10.1 ± 1.0; External Segment Total Score ([1]; 0.5%): 3.5 ± 0.4; Internal Segment Total Score ([1]; 0.5%): 6.6 ± 0.8; Iridic injection score (Internal Segment) ([1]; 0.5%): 1.8 ± 0.2; Morphological change of iris score (Internal Segment) ([1]; 0.5%): 2.9 ± 0.4; Palpebral conjunctival edema score (External Segment) ([1]; 0.5%): 0; Palpebral conjunctival injection score (External Segment) ([1]; 0.5%): 1.5 ± 0.3; Effect on protein increase compared with 0.5% indomethacin ([2]; 0.01% of Compound [I]): equivalent to that of 0.5% indomethacin; Inhibition (protein increase) ([2]; content 0.0001%): 6.3%; Inhibition (protein increase) ([2]; content 0.001%): 26.3%; Inhibition (protein increase) ([2]; content 0.01%): 62.9%; Inhibition (protein increase) ([2]; content 0.1%): 87.8%; Anti-inflammatory effect compared with indomethacin ([2]; miosis and protein increase after paracentesis): stronger anti-inflammatory effect than indomethacin; Inhibitory activity on protein increase after paracentesis ([2]; rabbit, in vivo): strong and dose-related inhibitory activity on protein increase after paracenthesis
